Measurements as given in patent publication US8436012B2, “Imidazopyridin-2-one derivatives” (Daiichi Sankyo Company, Limited, priority 2008, dated 2013).

What was measured:
human mTOR = biological target: T1, human mTOR (Homo sapiens, UniProt P42345); test: mTOR Kinase Activity Inhibition Test; assay type: biochemical; settings: His-tagged mTOR (1362C), biotinylated peptide substrate, ATP, 3 hours at room temperature, fluorescence resonance energy transfer 665 nm/620 nm; read-out: IC50 value of mTOR enzyme inhibitory activity
T1 construct: the portion corresponding to 1362-2549aa at the C terminus of human mTOR; made in house
T1 sequence (P42345 1362-2549): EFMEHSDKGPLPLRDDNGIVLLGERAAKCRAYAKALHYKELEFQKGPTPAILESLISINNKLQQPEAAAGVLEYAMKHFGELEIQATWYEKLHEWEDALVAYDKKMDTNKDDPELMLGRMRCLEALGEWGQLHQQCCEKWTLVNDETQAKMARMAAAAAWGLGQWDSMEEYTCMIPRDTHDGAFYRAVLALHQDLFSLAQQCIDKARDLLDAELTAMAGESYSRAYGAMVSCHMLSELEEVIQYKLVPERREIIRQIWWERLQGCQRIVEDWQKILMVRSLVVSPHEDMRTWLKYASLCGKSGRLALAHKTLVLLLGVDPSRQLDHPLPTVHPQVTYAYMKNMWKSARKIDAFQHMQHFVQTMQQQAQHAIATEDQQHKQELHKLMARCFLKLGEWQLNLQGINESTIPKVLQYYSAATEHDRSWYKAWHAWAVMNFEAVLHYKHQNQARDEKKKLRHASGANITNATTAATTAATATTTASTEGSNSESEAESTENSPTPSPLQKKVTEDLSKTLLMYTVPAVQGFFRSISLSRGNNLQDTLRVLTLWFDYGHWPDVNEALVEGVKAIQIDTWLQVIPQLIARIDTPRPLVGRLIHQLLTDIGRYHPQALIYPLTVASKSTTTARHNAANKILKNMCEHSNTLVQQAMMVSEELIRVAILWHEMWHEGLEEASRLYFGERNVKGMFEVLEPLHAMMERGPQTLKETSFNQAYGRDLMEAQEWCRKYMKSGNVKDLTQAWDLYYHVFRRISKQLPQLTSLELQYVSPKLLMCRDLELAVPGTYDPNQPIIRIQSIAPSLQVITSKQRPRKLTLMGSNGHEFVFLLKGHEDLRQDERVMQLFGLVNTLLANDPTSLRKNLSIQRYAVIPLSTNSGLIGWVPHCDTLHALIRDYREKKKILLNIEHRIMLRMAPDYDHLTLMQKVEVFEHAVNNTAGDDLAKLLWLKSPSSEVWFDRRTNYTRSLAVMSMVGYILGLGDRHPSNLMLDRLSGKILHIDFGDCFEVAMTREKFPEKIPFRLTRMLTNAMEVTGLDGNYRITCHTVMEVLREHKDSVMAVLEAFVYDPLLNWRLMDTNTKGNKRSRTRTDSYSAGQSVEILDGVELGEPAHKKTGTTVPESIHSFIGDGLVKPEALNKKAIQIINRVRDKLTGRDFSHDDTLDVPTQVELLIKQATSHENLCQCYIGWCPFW
Procedure, shortened: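 Purified His-tagged human mTOR (1362–2549aa, from HEK293) was used with biotinylated peptide (8 μg/mL in enzyme solution) in HEPES pH 7.5 with 20 mM MnCl2. Compounds were diluted in 20 μM ATP solution, and the reaction ran 3 h at RT. Phospho-S6K(Thr389) HTRF was read as the 665/620 nm ratio, and IC50 came from % inhibition versus controls.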

WM-266-4 cells = test: Cell Proliferation Inhibitory Test; assay type: cell-based; settings: Homo sapiens, 72 h, cultured three days with test compound, MTT, read-out: 50% cell proliferation inhibitory activity (GI50 value)
Procedure, shortened: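 Cells cultured overnight, then exposed to serially diluted compound for three days; cell amount read by MTT. GI50 solved from 100×[(T−T0)/(C−T0)]=50, with T0 the value at time of compound addition and C the untreated three-day control.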

Compound | IC50 (human mTOR) [nM] | GI50 (WM-266-4 cells) [nM]
CN(CCO)c1c(-c2cnc3[nH]c(=O)n(C[C@H]4COCCO4)c3c2)cnc2[nH]ccc12 [Example 132, 1-[(2S)-1,4-Dioxan-2-ylmethyl]-6-{4-[(2-hydroxyethyl)(methyl)amino]-1H-pyrrolo[2,3-b]pyridin-5-yl}-1,3-dihydro-2H-imidazo[4,5-b]pyridin-2-one] | 100 to 5000 | 3000 to 25000
COc1c(-c2cnc3[nH]c(=O)n(C[C@H]4COCCO4)c3c2)cnc2[nH]ccc12 [Example 133, 1-[(2S)-1,4-Dioxan-2-ylmethyl]-6-(4-methoxy-1H-pyrrolo[2,3-b]pyridin-5-yl)-1,3-dihydro-2H-imidazo[4,5-b]pyridin-2-one] | < 50 | < 3000
COc1c[nH]c2ncc(-c3cnc4[nH]c(=O)n(C[C@H]5COCCO5)c4c3)cc12 [Example 134, 1-[(2S)-1,4-Dioxan-2-ylmethyl]-6-(3-methoxy-1H-pyrrolo[2,3-b]pyridin-5-yl)-1,3-dihydro-2H-imidazo[4,5-b]pyridin-2-one] | < 50 | < 3000
CO[C@@H]1CC[C@H](Cn2c(=O)[nH]c3ncc(-c4cnc5[nH]ccc5c4)cc32)OC1 [Example 136, 2,6-Anhydro-1,3,4-trideoxy-5-O-methyl-1-[2-oxo-6-(1H-pyrrolo[2,3-b]pyridin-5-yl)-2,3-dihydro-1H-imidazo[4,5-b]pyridin-1-yl]-L-threo-hexitol] | < 50 | < 3000
CO[C@H]1CCO[C@@H](Cn2c(=O)[nH]c3ncc(-c4cnc5[nH]ccc5c4)cc32)C1 [Example 137, 2,6-Anhydro-1,3,5-trideoxy-4-O-methyl-1-[2-oxo-6-(1H-pyrrolo[2,3-b]pyridin-5-yl)-2,3-dihydro-1H-imidazo[4,5-b]pyridin-1-yl]-L-threo-hexitol] | < 50 | < 3000
CO[C@H]1CCO[C@@H](Cn2c(=O)[nH]c3ncc(-c4cnc5[nH]ccc5c4C)cc32)C1 [Example 139, 2,6-Anhydro-1,3,5-trideoxy-4-O-methyl-1-[6-(4-methyl-1H-pyrrolo[2,3-b]pyridin-5-yl)-2-oxo-2,3-dihydro-1H-imidazo[4,5-b]pyridin-1-yl]-L-threo-hexitol] | < 50 | < 3000
CO[C@@H]1CCO[C@H](Cn2c(=O)[nH]c3ncc(-c4cnc5[nH]ccc5c4C)cc32)C1 [Example 140, 2,6-Anhydro-1,3,5-trideoxy-4-O-methyl-1-[6-(4-methyl-1H-pyrrolo[2,3-b]pyridin-5-yl)-2-oxo-2,3-dihydro-1H-imidazo[4,5-b]pyridin-1-yl]-D-threo-hexitol] | < 50 | < 3000
Cc1c(-c2cnc3[nH]c(=O)n(C[C@H]4CC[C@@H](O)CO4)c3c2)cnc2[nH]cc(Cl)c12 [Example 145, 2,6-Anhydro-1-[6-(3-chloro-4-methyl-1H-pyrrolo[2,3-b]pyridin-5-yl)-2-oxo-2,3-dihydro-1H-imidazo[4,5-b]pyridin-1-yl]-1,3,4-trideoxy-L-threo-hexitol] | < 50 | < 3000
CO[C@@H]1CC[C@H](Cn2c(=O)[nH]c3ncc(-c4cnc5[nH]cc(Cl)c5c4C)cc32)OC1 [Example 148, 2,6-Anhydro-1-[6-(3-chloro-4-methyl-1H-pyrrolo[2,3-b]pyridin-5-yl)-2-oxo-2,3-dihydro-1H-imidazo[4,5-b]pyridin-1-yl]-1,3,4-trideoxy-5-O-methyl-L-threo-hexitol] | < 50 | < 3000
Cc1nc2[nH]c(=O)n(C[C@H]3CC[C@@H](O)CO3)c2cc1-c1cnc2[nH]ccc2c1 [Example 149, 2,6-Anhydro-1,3,4-trideoxy-1-[5-methyl-2-oxo-6-(1H-pyrrolo[2,3-b]pyridin-5-yl)-2,3-dihydro-1H-imidazo[4,5-b]pyridin-1-yl]-L-threo-hexitol] | < 50 | < 3000
Cc1c[nH]c2ncc(-c3cnc4[nH]c(=O)n(C[C@H]5C[C@@H](O)CCO5)c4c3)c(C)c12 [Example 150, 2,6-Anhydro-1,3,5-trideoxy-1-[6-(3,4-dimethyl-1H-pyrrolo[2,3-b]pyridin-5-yl)-2-oxo-2,3-dihydro-1H-imidazo[4,5-b]pyridin-1-yl]-L-threo-hexitol] | < 50 | < 3000
CO[C@H]1CCO[C@@H](Cn2c(=O)[nH]c3ncc(-c4cnc5[nH]cc(Cl)c5c4C)cc32)C1 [Example 152, 2,6-Anhydro-1-[6-(3-chloro-4-methyl-1H-pyrrolo[2,3-b]pyridin-5-yl)-2-oxo-2,3-dihydro-1H-imidazo[4,5-b]pyridin-1-yl]-1,3,5-trideoxy-4-O-methyl-L-threo-hexitol] | < 50 | < 3000
COCC1COC[C@H](Cn2c(=O)[nH]c3ncc(-c4cnc5[nH]ccc5c4C)cc32)O1 (stereo partly drawn) [Example 153, 1-{[(2S)-6-(Methoxymethyl)-1,4-dioxan-2-yl]methyl}-6-(4-methyl-1H-pyrrolo[2,3-b]pyridin-5-yl)-1,3-dihydro-2H-imidazo[4,5-b]pyridin-2-one] | < 50 | < 3000
O=c1[nH]c2nc(Cl)c(-c3cnc4[nH]ccc4c3)cc2n1C[C@H]1COCCO1 [Example 155, 5-Chloro-1-[(2S)-1,4-dioxan-2-ylmethyl]-6-(1H-pyrrolo[2,3-b]pyridin-5-yl)-1,3-dihydro-2H-imidazo[4,5-b]pyridin-2-one] | < 50 | < 3000

More lines, main results first:

IC50 (human mTOR) [nM] | Compound | GI50 (WM-266-4 cells) [nM]
< 50 | CO[C@H]1CC[C@@H](Cn2c(=O)[nH]c3ncc(-c4cnc5[nH]ccc5c4)cc32)OC1 [Example 135, 2,6-Anhydro-1,3,4-trideoxy-5-O-methyl-1-[2-oxo-6-(1H-pyrrolo[2,3-b]pyridin-5-yl)-2,3-dihydro-1H-imidazo[4,5-b]pyridin-1-yl]-D-threo-hexitol] | < 3000
< 50 | CO[C@@H]1CCO[C@H](Cn2c(=O)[nH]c3ncc(-c4cnc5[nH]ccc5c4)cc32)C1 [Example 138, 2,6-Anhydro-1,3,5-trideoxy-4-O-methyl-1-[2-oxo-6-(1H-pyrrolo[2,3-b]pyridin-5-yl)-2,3-dihydro-1H-imidazo[4,5-b]pyridin-1-yl]-D-threo-hexitol] | < 3000
< 50 | Cc1c(-c2cnc3[nH]c(=O)n(C[C@H]4CC[C@@H](O)CO4)c3c2)cnc2[nH]ccc12 [Example 143, 2,6-Anhydro-1,3,4-trideoxy-1-[6-(4-methyl-1H-pyrrolo[2,3-b]pyridin-5-yl)-2-oxo-2,3-dihydro-1H-imidazo[4,5-b]pyridin-1-yl]-L-threo-hexitol] | < 3000
< 50 | Cc1c[nH]c2ncc(-c3cnc4[nH]c(=O)n(C[C@H]5CC[C@@H](O)CO5)c4c3)c(C)c12 [Example 144, 2,6-Anhydro-1,3,4-trideoxy-1-[6-(3,4-dimethyl-1H-pyrrolo[2,3-b]pyridin-5-yl)-2-oxo-2,3-dihydro-1H-imidazo[4,5-b]pyridin-1-yl]-L-threo-hexitol] | < 3000
< 50 | CO[C@@H]1CC[C@H](Cn2c(=O)[nH]c3ncc(-c4cnc5[nH]ccc5c4C)cc32)OC1 [Example 146, 2,6-Anhydro-1,3,4-trideoxy-5-O-methyl-1-[6-(4-methyl-1H-pyrrolo[2,3-b]pyridin-5-yl)-2-oxo-2,3-dihydro-1H-imidazo[4,5-b]pyridin-1-yl]-L-threo-hexitol] | < 3000
< 50 | CO[C@@H]1CC[C@H](Cn2c(=O)[nH]c3ncc(-c4cnc5[nH]cc(C)c5c4C)cc32)OC1 [Example 147, 2,6-Anhydro-1,3,4-trideoxy-1-[6-(3,4-dimethyl-1H-pyrrolo[2,3-b]pyridin-5-yl)-2-oxo-2,3-dihydro-1H-imidazo[4,5-b]pyridin-1-yl]-5-O-methyl-L-threo-hexitol] | < 3000
< 50 | CO[C@H]1CCO[C@@H](Cn2c(=O)[nH]c3ncc(-c4cnc5[nH]cc(C)c5c4C)cc32)C1 [Example 151, 2,6-Anhydro-1,3,5-trideoxy-1-[6-(3,4-dimethyl-1H-pyrrolo[2,3-b]pyridin-5-yl)-2-oxo-2,3-dihydro-1H-imidazo[4,5-b]pyridin-1-yl]-4-O-methyl-L-threo-hexitol] | < 3000
